Measurements published in ChEMBL document CHEMBL1154822, “Synthesis and antiproliferative activity of 7-azaindirubin-3'-oxime, a 7-aza isostere of the natural indirubin pharmacophore” (J Nat Prod, 2009).

Assays:
OVCAR-4 = test: Cytotoxicity against human OVCAR4 cells assessed as cell growth at 1 uM after 1 to 11 days by MTT assay; type: functional; details: read-out: Activity
786-0 [1] = test: Cytotoxicity against human 786-0 cells assessed as cell growth at 1 uM after 1 to 11 days by MTT assay; type: functional; details: read-out: Activity
NCI/ADR-RES [2] = test: Cytotoxicity against human NCI/ADR-RES cells assessed as cell growth at 1 uM after 1 to 11 days by MTT assay; type: functional; details: read-out: Activity
UACC-62 = test: Cytotoxicity against human UACC62 cells assessed as cell growth at 10 uM after 1 to 11 days by MTT assay; type: functional; details: read-out: Activity
RXF 393 = test: Cytotoxicity against human […] cells assessed as cell growth at 10 uM after 1 to 11 days by MTT assay; type: functional; details: read-out: Activity
HCT-116 [3] = test: Cytotoxicity against human HCT116 cells assessed as cell growth at 10 uM after 1 to 11 days by MTT assay; type: functional; details: read-out: Activity
KM12 = test: Cytotoxicity against human KM12 cells assessed as cell growth at 10 uM after 1 to 11 days by MTT assay; type: functional; details: read-out: Activity
SNB-75 = test: Cytotoxicity against human SNB75 cells assessed as cell growth at 10 uM after 1 to 11 days by MTT assay; type: functional; details: read-out: Activity
M14 [4] = test: Cytotoxicity against human M14 cells assessed as cell growth at 100 uM after 1 to 11 days by MTT assay; type: functional; details: read-out: Activity
HL-60(TB) [5] = test: Cytotoxicity against human HL-60(TB) cells assessed as cell growth at 100 uM after 1 to 11 days by MTT assay; type: functional; details: read-out: Activity
MOLT-4 [6] = test: Cytotoxicity against human MOLT4 cells assessed as cell growth at 100 uM after 1 to 11 days by MTT assay; type: functional; details: read-out: Activity
NCI-H522 = test: Cytotoxicity against human NCI-H522 cells assessed as cell growth at 100 uM after 1 to 11 days by MTT assay; type: functional; details: read-out: Activity
HT-29 [7] = test: Cytotoxicity against human HT-29 cells assessed as cell growth at 100 uM after 1 to 11 days by MTT assay; type: functional; details: read-out: Activity
OVCAR-8 [8] = test: Cytotoxicity against human OVCAR8 cells assessed as cell growth at 100 uM after 1 to 11 days by MTT assay; type: functional; details: read-out: Activity
786-0 [9] = test: Cytotoxicity against human 786-0 cells assessed as cell growth at 100 uM after 1 to 11 days by MTT assay; type: functional; details: read-out: Activity
NCI/ADR-RES [10] = test: Cytotoxicity against human NCI/ADR-RES cells assessed as cell growth at 100 uM after 1 to 11 days by MTT assay; type: functional; details: read-out: Activity
[11] = Cytotoxicity against human Hs 578T cells assessed as cell growth at 100 uM after 1 to 11 days by MTT assay; type: functional; details: read-out: Activity
A549 = test: Cytotoxicity against human A549 cells assessed as cell growth at 1 mM after 1 to 11 days by MTT assay; type: functional; details: read-out: Activity
HT-29 [12] = test: Cytotoxicity against human HT-29 cells assessed as cell growth at 1 mM after 1 to 11 days by MTT assay; type: functional; details: read-out: Activity
SF-268 = test: Cytotoxicity against human SF268 cells assessed as cell growth at 1 mM after 1 to 11 days by MTT assay; type: functional; details: read-out: Activity
COLO 205 [13] = test: Cytotoxicity against human COLO205 cells after 1 to 11 days by MTT assay; type: functional
HCT-116 [14] = test: Cytotoxicity against human HCT116 cells after 1 to 11 days by MTT assay; type: functional
HCT-15 = test: Cytotoxicity against human HCT15 cells after 1 to 11 days by MTT assay; type: functional
M14 [15] = test: Cytotoxicity against human M14 cells assessed as cell growth at 1 mM after 1 to 11 days by MTT assay; type: functional; details: read-out: Activity
UACC-257 [16] = test: Cytotoxicity against human UACC257 cells assessed as cell growth at 1 mM after 1 to 11 days by MTT assay; type: functional; details: read-out: Activity
OVCAR-8 [17] = test: Cytotoxicity against human OVCAR8 cells assessed as cell growth at 1 mM after 1 to 11 days by MTT assay; type: functional; details: read-out: Activity
PC-3 [18] = test: Cytotoxicity against human PC3 cells assessed as cell growth at 1 mM after 1 to 11 days by MTT assay; type: functional; details: read-out: Activity
T47D = test: Cytotoxicity against human T47D cells assessed as cell growth at 1 mM after 1 to 11 days by MTT assay; type: functional; details: read-out: Activity
SK-MEL-5 = test: Cytotoxicity against human SK-MEL-5 cells after 1 to 11 days by MTT assay; type: functional
OVCAR-5 = test: Cytotoxicity against human OVCAR5 cells after 1 to 11 days by MTT assay; type: functional
PC-3 [19] = test: Cytotoxicity against human PC3 cells after 1 to 11 days by MTT assay; type: functional
DU-145 [20] = test: Cytotoxicity against human DU145 cells after 1 to 11 days by MTT assay; type: functional
[21] = target: Glycogen synthase kinase-3 beta (Homo sapiens) (UniProt P49841); test: Inhibition of human GSK3-beta assessed as residual enzyme activity at 3 uM after 40 mins by scintillation counting
UACC-257 [22] = test: Cytotoxicity against human UACC257 cells assessed as cell growth at 0.1 uM after 1 to 11 days by MTT assay; type: functional; details: read-out: Activity
SW-620 = test: Cytotoxicity against human SW620 cells assessed as cell growth at 0.1 uM after 1 to 11 days by MTT assay; type: functional; details: read-out: Activity
IGROV-1 = test: Cytotoxicity against human IGROV1 cells assessed as cell growth at 0.1 uM after 1 to 11 days by MTT assay; type: functional; details: read-out: Activity
DU-145 [23] = test: Cytotoxicity against human DU145 cells assessed as cell growth at 0.1 uM after 1 to 11 days by MTT assay; type: functional; details: read-out: Activity
HL-60(TB) [24] = test: Cytotoxicity against human HL-60(TB) cells assessed as cell growth at 1 uM after 1 to 11 days by MTT assay; type: functional; details: read-out: Activity
MOLT-4 [25] = test: Cytotoxicity against human MOLT4 cells assessed as cell growth at 1 uM after 1 to 11 days by MTT assay; type: functional; details: read-out: Activity
RPMI-8226 = test: Cytotoxicity against human RPMI8226 cells assessed as cell growth at 1 uM after 1 to 11 days by MTT assay; type: functional; details: read-out: Activity
COLO 205 [26] = test: Cytotoxicity against human COLO205 cells assessed as cell growth at 1 uM after 1 to 11 days by MTT assay; type: functional; details: read-out: Activity
HCT-116 [27] = test: Cytotoxicity against human HCT116 cells assessed as cell growth at 1 uM after 1 to 11 days by MTT assay; type: functional; details: read-out: Activity
HT-29 [28] = test: Cytotoxicity against human HT-29 cells assessed as cell growth at 1 uM after 1 to 11 days by MTT assay; type: functional; details: read-out: Activity
HCC 2998 = test: Cytotoxicity against human HCC2998 cells assessed as cell growth at 10 uM after 48 hrs by MTT assay; type: functional; details: HCC 2998, 48 h, read-out: Activity
[29] = read-out: LC50 (the source's name)

Chain of Glycogen synthase kinase-3 beta (Homo sapiens) (P49841 whole entry, looked up): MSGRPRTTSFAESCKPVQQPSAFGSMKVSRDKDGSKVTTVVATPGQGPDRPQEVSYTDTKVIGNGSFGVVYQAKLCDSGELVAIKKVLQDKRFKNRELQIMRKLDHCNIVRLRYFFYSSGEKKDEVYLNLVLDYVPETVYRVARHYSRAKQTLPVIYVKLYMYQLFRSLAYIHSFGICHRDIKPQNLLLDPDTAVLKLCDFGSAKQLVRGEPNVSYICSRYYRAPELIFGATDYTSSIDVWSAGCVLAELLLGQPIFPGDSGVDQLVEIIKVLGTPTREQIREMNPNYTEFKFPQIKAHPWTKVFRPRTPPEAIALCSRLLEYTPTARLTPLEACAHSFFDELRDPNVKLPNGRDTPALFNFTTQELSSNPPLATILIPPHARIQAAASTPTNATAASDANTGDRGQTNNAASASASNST

For `O=C1Nc2ncccc2/C1=C1/Nc2ccccc2/C1=N\O`, the growth at 1 µM (OVCAR-4) was 97%, the growth at 1 µM (786-0 [1]) was 115% and the growth at 1 µM (NCI/ADR-RES [2]) was 100%. It also gave a growth at 10 µM (UACC-62) of 77%, a growth at 10 µM (RXF 393) of 55% and a growth at 10 µM (HCT-116 [3]) of 108%. For the same molecule, the growth at 10 µM (KM12) was 45%, the growth at 10 µM (SNB-75) was 86% and the growth at 100 µM (M14 [4]) was 46%. For the same molecule, the growth at 100 µM (HL-60(TB) [5]) was 38%, the growth at 100 µM (MOLT-4 [6]) was 26% and the growth at 100 µM (NCI-H522) was 61%. For the same molecule, the growth at 100 µM (HT-29 [7]) was 81%, the growth at 100 µM (OVCAR-8 [8]) was 50% and the growth at 100 µM (786-0 [9]) was 41%. For the same molecule, the growth at 100 µM (NCI/ADR-RES [10]) was 57%, the growth at 100 µM [11] was 4% and the growth at 1000 µM (A549) was 13%. It also gave a growth at 1000 µM (HT-29 [12]) of 48%, a growth at 1000 µM (SF-268) of 54% and a GI50 (COLO 205 [13]) of 1.73 µM. The TGI (COLO 205 [13]) was over 100 µM, the CC50 (COLO 205 [13]; [29]) was over 100 µM and the TGI (HCT-116 [14]) was over 100 µM. It also gave a CC50 (HCT-116 [14]; [29]) of over 100 µM, a GI50 (HCT-15) of 3.67 µM and a TGI (HCT-15) of over 100 µM. For the same molecule, the CC50 (HCT-15; [29]) was over 100 µM, the growth at 1000 µM (M14 [15]) was 21% and the growth at 1000 µM (UACC-257 [16]) was 60%. For the same molecule, the growth at 1000 µM (OVCAR-8 [17]) was 52%, the growth at 1000 µM (PC-3 [18]) was 45% and the growth at 1000 µM (T47D) was 21%. It also gave a GI50 (SK-MEL-5) of 9.53 µM, a TGI (SK-MEL-5) of over 100 µM and a CC50 (SK-MEL-5; [29]) of over 100 µM. It also gave a GI50 (OVCAR-5) of 93.9 µM, a TGI (OVCAR-5) of over 100 µM and a CC50 (OVCAR-5; [29]) of over 100 µM. It also gave a GI50 (PC-3 [19]) of 6.82 µM, a TGI (PC-3 [19]) of over 100 µM and a CC50 (PC-3 [19]; [29]) of over 100 µM. For the same molecule, the GI50 (DU-145 [20]) was 5.69 µM, the TGI (DU-145 [20]) was over 100 µM and the CC50 (DU-145 [20]; [29]) was over 100 µM. For the same molecule, the Activity [21] was 18%, the growth at 0.1 µM (UACC-257 [22]) was 98% and the growth at 0.1 µM (SW-620) was 99%. For the same molecule, the growth at 0.1 µM (IGROV-1) was 102%, the growth at 0.1 µM (DU-145 [23]) was 102% and the growth at 1 µM (HL-60(TB) [24]) was 99%. For the same molecule, the growth at 1 µM (MOLT-4 [25]) was 77%, the growth at 1 µM (RPMI-8226) was 80% and the growth at 1 µM (COLO 205 [26]) was 87%. For the same molecule, the growth at 1 µM (HCT-116 [27]) was 107% and the growth at 1 µM (HT-29 [28]) was 98%.

In the case of `O=C1Nc2ncccc2/C1=C1/Nc2ccccc2C1=O`, the growth at 10 µM (HCC 2998) is reported as 25.3%.
